The term IC50 denotes the midpoint of a concentration-inhibition curve.

The experiment relates to HCV replicon RNA (GenBank Accession No. AJ242654). Put plainly: HCV Replicon Assay (replicon RNA reduction and/or Fluc reporter signal). Type of experiment: cell-based, Hepatitis C virus. Conditions: Hepatitis C virus, 72 h, replicon-containing cells cultured with test compound for up to 3 days. The source says:
The lack of reliable and readily accessible cell-culture and small animal models permissive for HCV replication has limited the development of new anti-HCV agents. Self-replicating subgenomic HCV systems, termed HCV replicons, have been described and have been widely used to assess the efficacy of anti-HCV inhibitors (see Blight K J, et al., 2000, Efficient initiation of HCV RNA replication in cell culture. Science 290:1972-1974; Blight K J, et al., 2002, Highly permissive cell lines for subgenomic and genomic hepatitis C virus RNA replication. J Virol 76:13001-13014; Ikeda M, et al., 2002. Selectable subgenomic and genome-length dicistronic RNAs derived from an infectious molecular clone of the HCV-N strain of hepatitis C virus replicate efficiently in cultured Huh7 cells. J Virol 76:2997-3006; Lohmann V, et al., 1999, Replication of subgenomic hepatitis C virus RNAs in a hepatoma cell line. Science 285:110-113; Pietschmann T, et al., 2002, Persistent and transient replication of full-length hepatitis C virus genomes in cell culture. J Virol 76:4008-4021; and, Pietschmann T, et al., 2001, Characterization of cell lines carrying self-replicating hepatitis C virus RNAs. J Virol 75:1252-1264).
As described in U.S. Pat. No. 6,630,343, HCV inhibitors are analyzed in the bicistronic replicon by quantitating replicon RNA (GenBank Accession No. AJ242654) reduction and/or the Fluc reporter signal. Replicon-containing cells may be cultured with a test compound of the present invention for up to 3 days. Interferon (IFN) is used as a positive control. In general, the replicon IC50 values shown in Table 1 represent IC50 values determined by replicon RNA reduction.
The compound `CCc1cnc2c(c1)c(C#N)c(-c1ccc(S(=O)(=O)NC(C)(C)C)cn1)n2C1CCC1` [Cpd 186, N-tert-butyl-6-(3-cyano-1-cyclobutyl-5-ethyl-1H-pyrrolo[2,3-b]pyridin-2-yl)pyridine-3-sulfonamide] had a 50% inhibitory concentration (IC50) of less than 500 nM. The result for `CCc1cnc2c(c1)c(C#N)c(-c1ccc(S(=O)(=O)NC3(C)CC3)cn1)n2C1CCC1` [Cpd 188, 6-(3-cyano-1-cyclobutyl-5-ethyl-1H-pyrrolo[2,3-b]pyridin-2-yl)-N-(1-methylcyclopropyl)pyridine-3-sulfonamide] reads less than 500 nM. The same measure for `CCc1cnc2c(c1)c(C#N)c(-c1ncc(S(=O)(=O)NC3(C)CC3)cn1)n2C1CCC1` [Cpd 189, 2-(3-cyano-1-cyclobutyl-5-ethyl-1H-pyrrolo[2,3-b]pyridin-2-yl)-N-(1-methylcyclopropyl)pyrimidine-5-sulfonamide]: less than 500 nM; for `CCc1cnc2c(c1)c(C#N)c(-c1ncc(S(=O)(=O)NC(CF)CF)cn1)n2C1CCC1` [Cpd 192, 2-(3-cyano-1-cyclobutyl-5-ethyl-1H-pyrrolo[2,3-b]pyridin-2-yl)-N-(1,3-difluoropropan-2-yl)pyrimidine-5-sulfonamide]: less than 500 nM.

Compound `CCc1cnc2c(c1)c(C#N)c(-c1ccc(S(=O)(=O)NC3CC3)cn1)n2C1CCC1` [Cpd 193, 6-(3-cyano-1-cyclobutyl-5-ethyl-1H-pyrrolo[2,3-b]pyridin-2-yl)-N-cyclopropylpyridine-3-sulfonamide] yielded an IC50 of less than 500 nM.

Take `C[C@H](NS(=O)(=O)c1ccc(-c2c(C#N)c3cc(OC(F)F)cnc3n2C2CCC2)nc1)C1CC1` [Cpd 200, 6-[3-cyano-1-cyclobutyl-5-(difluoromethoxy)-1H-pyrrolo[2,3-b]pyridin-2-yl]-N-[(1S)-1-cyclopropylethyl]pyridine-3-sulfonamide]: the half-inhibitory concentration (IC50) is 500 to 2000 nM.

Take `Cc1ccc2c(n1)c(C#N)c(-c1ccc(S(=O)(=O)N[C@@H](C)C(F)(F)F)cn1)n2C1CCCC1` [Cpd 222, 6-(3-cyano-1-cyclopentyl-5-methyl-1H-pyrrolo[3,2-b]pyridin-2-yl)-N-[(2S)-1,1,1-trifluoropropan-2-yl]pyridine-3-sulfonamide]: the IC50 was less than 500 nM. Compound `N#Cc1c(-c2ccc(S(=O)(=O)NC3CC3)cn2)n(C2CCC2)c2ncc(C(F)(F)F)cc12` [Cpd 245, 6-[3-cyano-1-cyclobutyl-5-(trifluoromethyl)-1H-pyrrolo[2,3-b]pyridin-2-yl]-N-cyclopropylpyridine-3-sulfonamide] showed an IC50 of less than 500 nM. Compound `N#Cc1c(-c2ccc(NS(=O)(=O)C3CC3)cc2)n(C2CCC2)c2ncc(C(F)(F)F)cc12` [Cpd 246, N-{4-[3-cyano-1-cyclobutyl-5-(trifluoromethyl)-1H-pyrrolo[2,3-b]pyridin-2-yl]phenyl}cyclopropanesulfonamide] showed an IC50 of 500 to 2000 nM. The result for `CCc1cnc2c(c1)c(C#N)c(-c1ccc(S(=O)(=O)N[C@H](C)C(F)(F)F)cn1)n2C1CCCC1` [Cpd 251, 6-(3-cyano-1-cyclopentyl-5-ethyl-1H-pyrrolo[2,3-b]pyridin-2-yl)-N-[(2R)-1,1,1-trifluoropropan-2-yl]pyridine-3-sulfonamide] reads less than 500 nM. The same measure for `CCc1cnc2c(c1)c(C#N)c(-c1ccc(S(=O)(=O)N[C@@H](C)C(F)(F)F)cn1)n2C1CCCC1` [Cpd 252, 6-(3-cyano-1-cyclopentyl-5-ethyl-1H-pyrrolo[2,3-b]pyridin-2-yl)-N-[(2S)-1,1,1-trifluoropropan-2-yl]pyridine-3-sulfonamide]: less than 500 nM; for `CC1(NS(=O)(=O)c2ccc(-c3c(C#N)c4cc(C5CC5)cnc4n3C3CCCC3)nc2)CC1` [Cpd 253, 6-(3-cyano-1-cyclopentyl-5-cyclopropyl-1H-pyrrolo[2,3-b]pyridin-2-yl)-N-(1-methylcyclopropyl)pyridine-3-sulfonamide]: 500 to 2000 nM. `Cc1cnc2c(c1)c(C#N)c(-c1ccc(S(=O)(=O)N[C@@H](C)C(F)(F)F)cn1)n2C1CCCC1` [Cpd 255, 6-(3-cyano-1-cyclopentyl-5-methyl-1H-pyrrolo[2,3-b]pyridin-2-yl)-N-[(2S)-1,1,1-trifluoropropan-2-yl]pyridine-3-sulfonamide] displayed a half-maximal inhibitory concentration (IC50) of less than 500 nM.

As for `COc1cnc2c(c1)c(C#N)c(-c1ccc(S(=O)(=O)NC3(C)CC3)cn1)n2C1CCCC1` [Cpd 269, 6-(3-cyano-1-cyclopentyl-5-methoxy-1H-pyrrolo[2,3-b]pyridin-2-yl)-N-(1-methylcyclopropyl)pyridine-3-sulfonamide], the IC50 was less than 500 nM. The result for `CC1(NS(=O)(=O)c2ccc(-c3c(C#N)c4cc(Cl)cnc4n3C3CCC3)nc2)CC1` [Cpd 280, 6-(5-chloro-3-cyano-1-cyclobutyl-1H-pyrrolo[2,3-b]pyridin-2-yl)-N-(1-methylcyclopropyl)pyridine-3-sulfonamide] reads less than 500 nM. Compound `N#Cc1c(-c2ccc(S(=O)(=O)NC3(C(F)(F)F)CC3)cc2)n(C2CCC2)c2ncc(Cl)cc12` [Cpd 281, 4-(5-chloro-3-cyano-1-cyclobutyl-1H-pyrrolo[2,3-b]pyridin-2-yl)-N-[1-(trifluoromethyl)cyclopropyl]benzenesulfonamide] came in with an IC50 of less than 500 nM. The result for `CC(C)(NS(=O)(=O)c1ccc(-c2c(C#N)c3cc(Cl)cnc3n2C2CCC2)cc1)C(F)(F)F` [Cpd 282, 4-(5-chloro-3-cyano-1-cyclobutyl-1H-pyrrolo[2,3-b]pyridin-2-yl)-N-(1,1,1-trifluoro-2-methylpropan-2-yl)benzenesulfonamide] reads less than 500 nM. The same measure for `CC1(NS(=O)(=O)c2ccc(-c3c(C#N)c4cc(Cl)cnc4n3C3CCC3)cc2)CC1` [Cpd 284, 4-(5-chloro-3-cyano-1-cyclobutyl-1H-pyrrolo[2,3-b]pyridin-2-yl)-N-(1-methylcyclopropyl)benzenesulfonamide]: less than 500 nM; for `COc1cnc2c(c1)c(C#N)c(-c1ccc(S(=O)(=O)NC3(C(F)(F)F)CC3)cn1)n2C1CCC1` [Cpd 312, 6-(3-cyano-1-cyclobutyl-5-methoxy-1H-pyrrolo[2,3-b]pyridin-2-yl)-N-[1-(trifluoromethyl)cyclopropyl]pyridine-3-sulfonamide]: less than 500 nM. The same measure for `C[C@H](NS(=O)(=O)c1ccc(-c2cc3cc(C(F)(F)F)cnc3n2-c2ccccc2)nc1)C(F)(F)F` [Cpd 314, 6-[1-phenyl-5-(trifluoromethyl)-1H-pyrrolo[2,3-b]pyridin-2-yl]-N-[(2S)-1,1,1-trifluoropropan-2-yl]pyridine-3-sulfonamide]: 500 to 2000 nM; for `C[C@H](NS(=O)(=O)c1ccc(-c2cc3cc(C(F)(F)F)cnc3n2-c2cnccn2)nc1)C(F)(F)F` [Cpd 315, 6-[1-(pyrazin-2-yl)-5-(trifluoromethyl)-1H-pyrrolo[2,3-b]pyridin-2-yl]-N-[(2S)-1,1,1-trifluoropropan-2-yl]pyridine-3-sulfonamide]: less than 500 nM; for `C[C@H](NS(=O)(=O)c1ccc(-c2c(C#N)c3cc(F)cnc3n2-c2ccccc2)nc1)C(F)(F)F` [Cpd 319, 6-(3-cyano-5-fluoro-1-phenyl-1H-pyrrolo[2,3-b]pyridin-2-yl)-N-[(2S)-1,1,1-trifluoropropan-2-yl]pyridine-3-sulfonamide]: less than 500 nM. The compound `CSc1cnc2c(c1)c(C(=O)O)c(-c1ccc(S(=O)(=O)NC3(C(F)(F)F)CC3)cn1)n2C1CCCC1` [Cpd 330, 1-cyclopentyl-5-(methylsulfanyl)-2-(5-{[1-(trifluoromethyl)cyclopropyl]sulfamoyl}pyridin-2-yl)-1H-pyrrolo[2,3-b]pyridine-3-carboxylic acid] gave an IC50 of 2000 to 5000 nM. In the case of `CC(C)(NS(=O)(=O)c1ccc(-c2c(C(=O)O)c3cc(Cl)cnc3n2C2CCC2)nc1)C(F)(F)F` [Cpd 331, 5-chloro-1-cyclobutyl-2-{5-[(1,1,1-trifluoro-2-methylpropan-2-yl)sulfamoyl]pyridin-2-yl}-1H-pyrrolo[2,3-b]pyridine-3-carboxylic acid], the IC50 lay in the range of 500 to 2000 nM. Turning to `Cc1cnc2c(c1)c(C(N)=O)c(-c1ccc(S(=O)(=O)NC3(C(F)(F)F)CC3)cc1)n2C1CCC1` [Cpd 342, 1-cyclobutyl-5-methyl-2-(4-{[1-(trifluoromethyl)cyclopropyl]sulfamoyl}phenyl)-1H-pyrrolo[2,3-b]pyridine-3-carboxamide], the IC50 was less than 500 nM. For `Cc1cnc2c(c1)c(C(N)=O)c(-c1ccc(S(=O)(=O)N[C@@H](C)C(F)(F)F)cc1)n2C1CCC1` [Cpd 343, 1-cyclobutyl-5-methyl-2-(4-{[(2S)-1,1,1-trifluoropropan-2-yl]sulfamoyl}phenyl)-1H-pyrrolo[2,3-b]pyridine-3-carboxamide], the concentration for half-maximal inhibition (IC50) was less than 500 nM. The same measure for `C[C@H](NS(=O)(=O)c1ccc(-c2c(C#N)c3cc(N(C)Cc4ccccc4)cnc3n2C2CCC2)nc1)C(F)(F)F` [Cpd 350, 6-{5-[benzyl(methyl)amino]-3-cyano-1-cyclobutyl-1H-pyrrolo[2,3-b]pyridin-2-yl}-N-[(2S)-1,1,1-trifluoropropan-2-yl]pyridine-3-sulfonamide]: less than 500 nM.

The record behind these values is patent US9593108B2, “Compounds and methods for antiviral treatment” (PTC Therapeutics, Inc., priority 2009, dated 2017).
